Assay [1] has as its target T1, Protein O-GlcNAcase (Homo sapiens, UniProt O60502).
T1 sequence (O60502 whole entry): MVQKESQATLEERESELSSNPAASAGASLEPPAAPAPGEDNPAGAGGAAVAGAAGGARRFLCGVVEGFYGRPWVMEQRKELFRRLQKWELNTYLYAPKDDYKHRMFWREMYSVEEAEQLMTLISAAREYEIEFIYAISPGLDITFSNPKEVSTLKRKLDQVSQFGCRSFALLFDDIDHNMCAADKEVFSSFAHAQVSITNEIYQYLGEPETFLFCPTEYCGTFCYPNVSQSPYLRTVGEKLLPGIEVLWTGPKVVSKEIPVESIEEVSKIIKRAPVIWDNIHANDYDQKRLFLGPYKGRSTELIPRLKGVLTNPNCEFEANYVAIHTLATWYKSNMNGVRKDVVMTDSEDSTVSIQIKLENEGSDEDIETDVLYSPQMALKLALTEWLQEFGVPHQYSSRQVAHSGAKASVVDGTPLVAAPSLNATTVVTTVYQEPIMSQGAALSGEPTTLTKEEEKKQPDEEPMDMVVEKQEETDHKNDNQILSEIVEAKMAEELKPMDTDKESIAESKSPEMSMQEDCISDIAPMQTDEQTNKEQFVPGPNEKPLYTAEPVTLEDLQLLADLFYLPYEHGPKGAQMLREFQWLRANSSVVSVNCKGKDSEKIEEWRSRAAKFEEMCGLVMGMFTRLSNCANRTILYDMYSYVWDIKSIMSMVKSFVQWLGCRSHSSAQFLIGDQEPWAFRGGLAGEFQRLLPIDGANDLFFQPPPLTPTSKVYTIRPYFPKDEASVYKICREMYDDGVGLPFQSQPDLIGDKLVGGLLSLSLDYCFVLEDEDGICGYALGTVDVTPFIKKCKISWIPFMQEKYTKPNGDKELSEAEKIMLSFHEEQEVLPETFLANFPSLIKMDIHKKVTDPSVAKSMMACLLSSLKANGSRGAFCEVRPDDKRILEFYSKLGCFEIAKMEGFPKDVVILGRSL
The experiment in a line: Inhibition of human His-tagged OGA using fluorescein mono-beta-D-([…]) glucopyranoside as substrate after 60 mins by fluorescence assay.

The target of assay [2] is T2, Protein O-GlcNAcase (Rattus norvegicus, UniProt Q8VIJ5).
T2 sequence (Q8VIJ5 whole entry): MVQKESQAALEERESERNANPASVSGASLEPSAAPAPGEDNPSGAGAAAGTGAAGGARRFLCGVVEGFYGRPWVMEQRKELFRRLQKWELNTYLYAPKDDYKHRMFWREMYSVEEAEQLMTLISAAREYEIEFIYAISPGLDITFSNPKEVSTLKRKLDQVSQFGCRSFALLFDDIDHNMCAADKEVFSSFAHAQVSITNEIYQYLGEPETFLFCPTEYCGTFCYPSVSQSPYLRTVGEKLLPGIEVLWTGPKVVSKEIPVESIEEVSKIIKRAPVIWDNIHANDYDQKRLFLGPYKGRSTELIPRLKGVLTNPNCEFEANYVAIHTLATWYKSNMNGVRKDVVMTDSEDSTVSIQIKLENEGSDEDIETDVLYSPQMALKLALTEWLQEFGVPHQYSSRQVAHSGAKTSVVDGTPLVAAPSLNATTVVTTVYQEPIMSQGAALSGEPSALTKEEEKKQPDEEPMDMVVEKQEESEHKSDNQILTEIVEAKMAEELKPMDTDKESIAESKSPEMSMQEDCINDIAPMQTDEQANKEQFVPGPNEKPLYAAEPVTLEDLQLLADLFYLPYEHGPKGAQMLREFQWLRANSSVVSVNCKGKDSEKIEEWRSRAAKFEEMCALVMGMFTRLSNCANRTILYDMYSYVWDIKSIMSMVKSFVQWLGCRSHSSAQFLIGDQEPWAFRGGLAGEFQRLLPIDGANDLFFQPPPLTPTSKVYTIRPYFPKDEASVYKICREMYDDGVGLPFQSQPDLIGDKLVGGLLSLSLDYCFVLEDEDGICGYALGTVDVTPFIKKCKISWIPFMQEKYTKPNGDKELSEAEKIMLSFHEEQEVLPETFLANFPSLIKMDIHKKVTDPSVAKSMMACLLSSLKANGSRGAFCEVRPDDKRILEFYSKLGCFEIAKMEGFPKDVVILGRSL
The experiment in a line: Inhibition of OGA in rat B35 cells after 16 hrs. Format: cell-based.

Some results are limits rather than exact numbers.

By IC50 is commonly meant the concentration that gives 50% inhibition. Low readings indicate higher potency, high ones lower potency. One may read the EC50 as the concentration that produces a half-maximal response. High values mean a need for much substance, low ones an effect from little substance. The molecule `COC(=O)Nc1ncc(CN2CCC(c3ccccc3)CC2)s1` returned a concentration for half-maximal inhibition (IC50) on Protein O-GlcNAcase [1] of 1 µM. Besides, at Protein O-GlcNAcase [2], a half-maximal effect (EC50) was put at 10 µM.

As to `CC(=O)Nc1ncc(CN2CCC(c3ccccc3)CC2)s1`, the IC50 against Protein O-GlcNAcase [1] was less than 0.2 µM. In addition, the 50% effective concentration (EC50) at Protein O-GlcNAcase [2] amounted to 0.2 µM.

Regarding `CC(=O)Nc1ncc(CN2CCC(c3cccc(C)c3)CC2)s1`, on Protein O-GlcNAcase [1], the IC50 was less than 0.2 µM. In addition, the EC50 at Protein O-GlcNAcase [2] was less than 0.2 µM.

The molecule `CC(=O)Nc1ncc(CN2CCC(F)(c3ccccc3)CC2)s1` displayed an IC50 at Protein O-GlcNAcase [1] of 1 µM. The molecule further gave an EC50 on Protein O-GlcNAcase [2] of 1 µM.

The record behind these values is ChEMBL document CHEMBL3352179, “Inhibition of O-GlcNAcase (OGA): A Potential Therapeutic Target to Treat Alzheimer's Disease” (ACS Med Chem Lett, 2014).
